The inhibition is the relative decrease from the control value, in per cent.

Experiment [1] deals with cucumber gray mold (Botrytis cinerea). Description: microbe, parasite or virus in culture. Conditions: read-out: Inhibition rate against cucumber gray mold (%). Format: cell-based.
Experiment [2] has as its system rice blast (Magnaporthe grisea). Description: microbe, parasite or virus in culture. It is filed as cell-based. Conditions: for Activity against rice blast in vitro (%): Table 10; for inhibition at 0.03 µg/mL / inhibition at 0.3 µg/mL: Pyricularia oryzae, read-out: Inhibition rate against rice blast (%).
Experiment [3] concerns cucumber downy mildew (Pseudoperonospora cubensis). Nature of the experiment: whole plant or invertebrate. Format: in vivo. As to conditions: for pest or weed control at 3.125 µg/mL / pest or weed control at 12.5 µg/mL / pest or weed control at 50 µg/mL: Pseudoperonospora cubensis, 168 h, read-out: Protectant activity (%) against cucumber downy mildew in vivo.
Experiment [4] deals with corn rust (Puccinia sorghi).
In experiment [5] the test system is rice sheath blight (Rhizoctonia solani Palo). It is filed as cell-based.
The subject of experiment [6] is cucumber fusarium wilt (Fusarium oxysporum f. sp.). It is filed as cell-based.
Experiment [7] deals with pear scab (Fusicladium pirina). It is filed as cell-based.
The subject of experiment [8] is rape sclertiniose (Sclerotinia sclerotiorum). Format: cell-based.
In experiment [9] the test system is cotton nthracnose (Colletotrichum gossypii Southw.). Format: cell-based.

Values joined by “and” are separate entries in the source; they are usually repeats but may differ in a detail not shown here. Equal entries are not always repeated.

As for `Cc1cc([N+](=O)[O-])cc([N+](=O)[O-])c1Nc1c(Cl)cc(Cl)cc1Cl` [contrast ACS], in experiment [1], the inhibition at 0.03 µg/mL came to 0%, the inhibition at 0.1 µg/mL came to 0% and the inhibition at 0.3 µg/mL amounted to 0%. For the same compound, the “Activity against rice blast in vitro (%)” value in experiment [2] (0.9 mg/L) is given as 0%. In addition, the “Activity against rice blast in vitro (%)” value in experiment [2] (2.8 mg/L) is on record as 0%. Also, the “Activity against rice blast in vitro (%)” value in [2] (8.3 mg/L) is given as 0%. Further, the “Activity against rice blast in vitro (%)” value in [2] (25 mg/L) is 0%. For the same compound, in experiment [2], the inhibition at 0.03 µg/mL worked out at 0% and the inhibition at 0.3 µg/mL came out at 0%. Besides, in [3], the pest or weed control at 3.125 µg/mL is 0%, the pest or weed control at 12.5 µg/mL was 0% and the pest or weed control at 50 µg/mL stood at 0%. Further, in [3] (in vivo), the “Protectant activity against cucumber downy mildew in vivo (%)” value is 0%. Further, the “Protectant activity (%) against corn rust in vivo” value in experiment [4] came to 0%.
With `COc1ccc(C(=CC(=O)N2CCOCC2)c2ccc(Cl)cc2)cc1OC` [dimethomorph], in [3], the pest or weed control at 3.125 µg/mL worked out at 35%, the pest or weed control at 12.5 µg/mL is 80% and the pest or weed control at 50 µg/mL came out at 100%.
With `c1ccc(Nc2ccccc2)cc1` [diphenylamine], in experiment [3], the pest or weed control at 3.125 µg/mL is 0%, the pest or weed control at 12.5 µg/mL was determined as 0% and the pest or weed control at 50 µg/mL was 0%.
Consider `O=[N+]([O-])c1cc(C(F)(F)F)c(Cl)c([N+](=O)[O-])c1Nc1ncc(C(F)(F)F)cc1Cl` [fluazinam], for which the “Activity in vitro (%), rice sheath blight” value in experiment [5] is 97% and 83% and 69%. Also, in experiment [1], the inhibition at 0.03 µg/mL worked out at 0%, the inhibition at 0.1 µg/mL was 80% and the inhibition at 0.3 µg/mL came to 100%. In addition, in experiment [6], the “Activity in vitro (%), cucumber fusarium wilt” value is 92% and 85% and 56%. Also, in experiment [2], the inhibition at 0.03 µg/mL was determined as 50% and the inhibition at 0.3 µg/mL came to 100%. Further, in experiment [3], the pest or weed control at 3.125 µg/mL came to 40%, the pest or weed control at 12.5 µg/mL was found to be 95% and the pest or weed control at 50 µg/mL worked out at 100%. Also, the “Activity in vitro (%), pear scab” value in [7] was 94% and 89% and 47%. Moreover, the “Activity in vitro (%), rape sclertiniose” value in experiment [8] was 100% and 97% and 57%. Moreover, the “Activity in vitro (%), cotton nthracnose” value in experiment [9] was 100% and 97% and 71%.
In the case of `Cc1c(Cl)c([N+](=O)[O-])cc([N+](=O)[O-])c1Cl` [intermediate B], in experiment [3], the pest or weed control at 3.125 µg/mL was determined as 0%, the pest or weed control at 12.5 µg/mL was 0% and the pest or weed control at 50 µg/mL was 0%.
`Nc1c(Cl)cc([N+](=O)[O-])cc1Cl` [intermediate C]: in experiment [3], the pest or weed control at 3.125 µg/mL is 0%, the pest or weed control at 12.5 µg/mL was 0% and the pest or weed control at 50 µg/mL stood at 0%.

These data come from patent US9061967B2 (priority 2010, dated 2015).
